This is an account of results in patent US7317125B2 (Hoffman-La Roche Inc., priority 2005, dated 2008).

By EC50 is commonly meant the concentration needed to bring the measured effect to its halfway point. Read a high EC50 as a need for much substance.

The target in this assay is T1, DGAT1 (Homo sapiens, UniProt O75907).
T1 construct: expressed in transfected cells; host or cells: CHOK1
T1 sequence (O75907 1-488): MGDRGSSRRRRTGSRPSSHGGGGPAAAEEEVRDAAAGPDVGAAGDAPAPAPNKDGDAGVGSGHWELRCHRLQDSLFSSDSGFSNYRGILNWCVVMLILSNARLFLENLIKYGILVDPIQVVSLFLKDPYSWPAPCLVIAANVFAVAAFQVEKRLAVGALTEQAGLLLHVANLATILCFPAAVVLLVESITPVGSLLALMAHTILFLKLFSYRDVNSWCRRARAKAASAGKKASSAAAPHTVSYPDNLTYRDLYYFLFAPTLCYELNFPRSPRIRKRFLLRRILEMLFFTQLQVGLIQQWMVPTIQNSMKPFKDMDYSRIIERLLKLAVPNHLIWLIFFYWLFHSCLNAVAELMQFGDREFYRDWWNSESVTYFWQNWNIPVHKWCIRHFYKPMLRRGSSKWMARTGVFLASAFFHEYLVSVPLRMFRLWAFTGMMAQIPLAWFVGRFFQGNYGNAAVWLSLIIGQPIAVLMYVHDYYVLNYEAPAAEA
Briefly: DGAT CHOK1 Cell Assay. The class given is cell-based. The settings on record: CHOK1 cells transfected with DGAT1, 14C palmitic acid, 1 hour at 37° C., triglyceride by TLC. From the text: Materials for the assay were: petroleum ether (J. T. Baker #9268-22); diethyl ether (Aldrich #30995-8); acetic acid; 1,2-dioleoyl-3-palmitoyl-glycerol (Sigma D-1782); ^[…] Palmitic Acid (56.0 mCi/mmol PerkinElmer Life Sciences # NEC 075H); DMEM/F12 (Gibco #11330-032); fetal bovine serum; L-Glutamine; G418/ml media; DMEM High Glucose (Gibco #11995-065); BSA Fraction V Fatty Acid Free (Roche #100 377); 20×°cm silica gel 60 glass plates (EM Science Plates #5721/7).
CHOK1/DGAT cell culture medium was prepared with DMEM/F12 (Gibco #11330-032), […], and 20 ul G418/ml media. 1,2-dioleoyl-3-palmitoyl-glycerol was prepared by dissolving 10 mg into 1 ml chloroform and stored at −20° C. in 100 μl aliquots. Test compounds were prepared as 10 mM stock solutions in DMSO and store at −20° C. before use. Test dilutions were prepared by five fold serial dilutions over final concentrations.
CHOK1 cells transfected with DGAT1 were diluted in 6 well plates at 2.5×10^5 cells per well and cultured overnight. Cells were then washed twice with PBS. Test compound solutions (10 μl/2 ml media aliquots) in DMEM High Glucose with 0.01% BSA (fatty acid free) were added to cell culture plates at 800 μl per well. ^14C Palmitic acid (0.5 μCi, 5 μl) was added to each well. The plates were incubated for 1 hour at 37° C. After the incubation period, the plates were placed on ice, cells were scraped into media and transferred to microfuge tubes. 400 μl chloroform:methanol (2:1) was added to each tube. Each tube was briefly vortexed by hand, then mechanically vortexed for 10 minutes. Each tube was then centrifuged at 14,000 RPM for 10 minutes at 4° C. and the bottom layer removed and transferred to a new microfuge tube.
Extracted samples were spotted onto TLC plates at 20 μl per lane. The TLC plates were eluted with a solvent mixture of petroleum ether, diethyl ether and acetic acid (80:20:1) and air dried. Trigylceride (TG) spots were visualized by placing in an iodine chamber for several minutes. 1 μl of ^14C palmitic acid (diluted 1:10 in 100% EtOH) was spotted on the TG standard lane (at TG level) as a reference. The TLC plates were wrapped in plastic wrap and placed in a phosphorimager cassette for scanning.
The EC50 values for those compounds tested in this Example were generated using an Excel template, the results of which are shown in Table II: […]

Take `COCCOc1ccc(C(=O)NN(C(=O)COc2ccc(F)cc2-c2ccccc2OC(F)(F)F)C(C)C)cc1` [Example 39, 4-(2-methoxy-ethoxy)-benzoic acid N′-[2-(5-fluoro-2′-trifluoromethoxy-biphenyl-2-yloxy)-acetyl]-N′-isopropyl hydrazide]: the concentration giving a half-maximal response (EC50) was found to be 3.05 µM.

On to `CC(C)N(NC(=O)c1ccccc1)C(=O)COc1ccc(F)cc1-c1ccccc1[N+](=O)[O-]` [Example 14, benzoic acid N′-[2-(5-fluoro-2′-nitro-biphenyl-2-yloxy)-acetyl]-N′-isopropyl-hydrazide], for which the EC50 stood at 0.23 µM.

In turn, `CC(C)N(NC(=O)c1ccccc1)C(=O)COc1ccc(F)cc1-c1ccccc1F` [Example 5, benzoic acid N′-[2-(5,2′-difluoro-biphenyl-2-yloxy)-acetyl]-N′-isopropyl-hydrazide] gave an EC50 of 2.21 µM.

`CC(C)N(NC(=O)c1ccccc1)C(=O)COc1ccc(F)cc1-c1ccccc1` [Example 11, benzoic acid N′-[2-(5-fluoro-biphenyl-2-yloxy)-acetyl]-N′-isopropyl-hydrazide] came in with an EC50 of 1.85 µM.

Molecule `CC(C)N(NC(=O)c1ccccc1)C(=O)COc1ccc(F)cc1-c1cccc(Cl)c1` [Example 10] displayed an EC50 of 0.91 µM.

Regarding `Cc1ccccc1-c1cc(F)ccc1OCC(=O)N(NC(=O)c1ccccc1)C(C)C` [Example 3, benzoic acid N′-[2-(5-fluoro-2′-methyl-biphenyl-2-yloxy)-acetyl]-N′-isopropyl-hydrazide], the EC50 was 1.02 µM.

`CCOc1ccccc1-c1cc(F)ccc1OCC(=O)N(NC(=O)c1ccccc1)C(C)C` [Example 21, benzoic acid N′-[2-(2′-ethoxy-5-fluoro-biphenyl-2-yloxy)-acetyl]-N′-isopropyl-hydrazide] had an EC50 of 1.34 µM.

Turning to `CC(C)N(NC(=O)c1ccccc1)C(=O)CSc1ccccc1-c1ccc(F)cc1` [Example 51, benzoic acid N′-[2-(4′-fluoro-biphenyl-2-ylsulfanyl)-acetyl]-N′-isopropyl-hydrazide], a half-maximal response (EC50) required 4.9 µM.

In the case of `CC(C)CNc1ccc(C(=O)NN(C(=O)COc2ccc(F)cc2-c2ccccc2OC(F)(F)F)C(C)C)cc1` [Example 57, 4-(isobutylamino)-benzoic acid N′-[2-(5-fluoro-2′-trifluoromethoxy-biphenyl-2-yloxy)-acetyl]-N′-isopropyl hydrazide], the midpoint of the response, the EC50, lay at 0.348 µM.

The molecule `CC(C)c1cccc(-c2cc(F)ccc2OCC(=O)N(NC(=O)c2ccccc2)C(C)C)c1` [Example 12, benzoic acid N′-[2-(5-fluoro-3′-isopropyl-biphenyl-2-yloxy)-acetyl]-N′-isopropyl-hydrazide] had an EC50 of 1.01 µM. Compared with the last molecule, the EC50 is about 2.9-fold higher.

`CC(C)c1ccccc1-c1cc(F)ccc1OCC(=O)N(NC(=O)c1ccccc1)C(C)C` [Example 22, benzoic acid N′-[2-(5-fluoro-2′-isopropyl-biphenyl-2-yloxy)-acetyl]-N′-isopropyl-hydrazide]: it took 0.38 µM to reach a half-maximal effect (EC50).

With `Cc1cccc(-c2cc(F)ccc2OCC(=O)N(NC(=O)c2ccccc2)C(C)C)c1C` [Example 19, benzoic acid N′-[2-(2′,3′-dimethyl-5-fluoro-biphenyl-2-yloxy)-acetyl]-N′-isopropyl-hydrazide], the EC50 turned out to be 1.3 µM.

On to `CC(C)N(NC(=O)c1ccoc1)C(=O)COc1ccc(F)cc1-c1ccccc1OC(F)(F)F` [Example 37, furan-3-carboxylic acid N′-[2-(5-fluoro-2′-trifluoromethoxy-biphenyl-2-yloxy)-acetyl]-N′-isopropyl-hydrazide], for which a half-maximal effect (EC50) was put at 11.1 µM.

`CCc1ccccc1-c1cc(F)ccc1OCC(=O)N(NC(=O)c1ccccc1)C(C)C` [Example 16, benzoic acid N′-[2-(2′-ethyl-5-fluoro-biphenyl-2-yloxy)-acetyl]-N′-isopropyl-hydrazide] showed an EC50 of 0.216 µM.

The molecule `COC(=O)c1ccccc1-c1cc(F)ccc1OCC(=O)N(NC(=O)c1ccccc1)C(C)C` [Example 18, benzoic acid N′-[2-(2′-methoxycarbonyl-5-fluoro-biphenyl-2-yloxy)-acetyl]-N′-isopropyl-hydrazide] gave an EC50 of 2.69 µM. Compared with the last molecule, the EC50 is about 12-fold higher.

`CCc1ccccc1-c1cc(C)ccc1OCC(=O)N(NC(=O)c1ccccc1)C(C)C` [Example 26, benzoic acid N′-[2-(2′-ethyl-5-methyl-biphenyl-2-yloxy)-acetyl]-N′-isopropyl-hydrazide] displayed an EC50 of 0.88 µM.

Turning to `COc1ccccc1-c1ccccc1SCC(=O)N(NC(=O)c1ccccc1)C(C)C` [Example 53, benzoic acid N′-[2-(2′-methoxy-biphenyl-2-ylsulfanyl)-acetyl]-N′-isopropyl-hydrazide], the midpoint of the response, the EC50, lay at 6.7 µM.

In turn, `CC(C)N(NC(=O)C1CCSCC1)C(=O)COc1ccc(F)cc1-c1ccccc1OC(F)(F)F` [Example 41, tetrahydro-thiopyran-4-carboxylic acid N′-[2-(5-fluoro-2′-trifluoromethoxy-biphenyl-2-yloxy)-acetyl]-N′-isopropyl hydrazide] registered an EC50 of 0.774 µM.

Molecule `CC(C)N(NC(=O)c1ccccc1)C(=O)COc1ccc(F)cc1-c1cccc(F)c1` [Example 9, benzoic acid N′-[2-(5,3′-difluoro-biphenyl-2-yloxy)-acetyl]-N′-isopropyl-hydrazide] showed a concentration for a half-maximal effect (EC50) of 3.78 µM.

`CC(C)N(NC(=O)c1cccs1)C(=O)COc1ccc(F)cc1-c1ccccc1OC(F)(F)F` [Example 40, thiophene-2-carboxylic acid N′-[2-(5-fluoro-2′-trifluoromethoxy-biphenyl-2-yloxy)-acetyl]-N′-isopropyl hydrazide] yielded an EC50 of 3.48 µM.

Take `CC(C)N(NC(=O)c1ccccc1)C(=O)COc1cc(F)c(F)cc1-c1ccccc1OC(F)(F)F` [Example 32, benzoic acid N′-[2-(4,5-difluoro-2′-trifluoromethoxy-biphenyl-2-yloxy)-acetyl]-N′-isopropyl hydrazide]: the EC50 turned out to be 0.938 µM.

Consider `CCc1ccccc1-c1cc(C#N)ccc1OCC(=O)N(NC(=O)c1ccccc1)C(C)C` [Example 29, benzoic acid N′-[2-(5-cyano-2′-ethyl-biphenyl-2-yloxy)-acetyl]-N′-isopropyl-hydrazide], for which the EC50 was found to be 1.37 µM.

In turn, `CC(C)N(NC(=O)c1ccccc1)C(=O)CSc1ccccc1-c1cccc(C(F)(F)F)c1` [Example 52, benzoic acid N′-[2-(3′-trifluoromethyl-biphenyl-2-ylsulfanyl)-acetyl]-N′-isopropyl-hydrazide] yielded an EC50 of 1.6 µM.

Molecule `CC(C)N(NC(=O)c1ccccc1)C(=O)CSc1ccccc1-c1ccccc1` [Example 56, benzoic acid N′-[2-(biphenyl-2-ylsulfanyl)-acetyl]-N′-isopropyl-hydrazide] gave an EC50 of 37.4 µM.

`CC(C)N(NC(=O)C1CCCCC1)C(=O)COc1ccc(F)cc1-c1ccccc1OC(F)(F)F` [Example 38, cyclohexanecarboxylic acid N′-[2-(5-fluoro-2′-trifluoromethoxy-biphenyl-2-yloxy)-acetyl]-N′-isopropyl-hydrazide]: the 50% effective concentration (EC50) stood at 2.81 µM.

For the molecule `CC(C)N(NC(=O)c1ccccc1)C(=O)CSc1ccccc1-c1ccccc1F` [Example 54, benzoic acid N′-[2-(2′-fluoro-biphenyl-2-ylsulfanyl)-acetyl]-N′-isopropyl-hydrazide], a half-maximal effect (EC50) was put at 1.43 µM. Against the preceding molecule, the EC50 is about 2-fold lower.

`CC(C)N(NC(=O)c1ccccc1)C(=O)COc1ccc(F)cc1-c1ccc(F)cc1` [Example 1, benzoic acid N′-[2-(5,4′-difluoro-biphenyl-2-yloxy)-acetyl]-N′-isopropyl-hydrazide]: a half-maximal effect (EC50) was put at 8.3 µM.

In turn, `COc1ccc(-c2ccccc2SCC(=O)N(NC(=O)c2ccccc2)C(C)C)cc1` [Example 55, benzoic acid N′-[2-(4′-methoxy-biphenyl-2-ylsulfanyl)-acetyl]-N′-isopropyl-hydrazide] yielded an EC50 of 2.3 µM.
